Measured values published in patent publication US11564990B2, “Multi-drug-loading-site, high drug-loading capacity ligand-drug conjugate” (JenKem Technology Co., Ltd. (Beijing), priority 2017, dated 2023).

Tests used:
[1] = Determination of drug antibody coupling ratio (DAR) by UV/Vis method; format: physicochemical; conditions: two-step coupling products, UV-Vis; moles of drug divided by moles of antibody
Excerpt: In formula (1), the sum of the absorbances of the drug and the antibody at 280 nm constitutes the total absorbance (A280): A280=(εdrug^280Cdrug+εmAb^280CmAb)l (1)
wherein εdrug^280 is the extinction coefficient of the drug at 280 nm; Cdrug is the drug concentration (mg/mL); […] the extinction coefficient of the antibody at 280 nm; CmAb is the concentration of the antibody.
Equation (2) is the parallel equation for the total absorbance of the drug at the maximum absorption λ(D): Aλ(D)=(εdrug^λ(D)Cdrug+εmAb^λ(D)CmAb)l (2)
wherein εdrug^λ(D) is the extinction coefficient of the drug at λ(D)nm; Cdrug is the drug concentration (mg/mL); εmAb^λ(D) is the extinction coefficient of the antibody at λ(D)nm; CmAb is the concentration of the antibody (mg/mL).
The concentration of antibody and drug can be calculated separately by two equations (1) and (2). CmAb=(A280εdrug^λ(D)−Aλ(D)εdrug^280)/[(εmAb^280εdrug^λ(D)−εmAb^λ(D)εdrug^280)l] (3) Cdrug=(A280εmAb^λ(D)−Aλ(D)εmAb^280)/[(εdrug^280εmAb^λ(D)−εdrug^λ(D)εmAb^280)l] (4)
The average drug antibody coupling ratio (DAR) calculated by dividing
[formula] is expressed as the number of moles of drug divided by the number of moles of antibody: […]

[2] = Antibody pharmacokinetic assay in rats (total antibody in plasma by HER2 ELISA); conditions: SD rats, intravenous 30 mg/kg, compared with control Ab
[3] = test system: colorectal cancer model (HCT-116); test: Efficacy test in colorectal cancer model in which HER2 was not expressed; format: in vivo, nude mice; conditions: HCT-116 model
Protocol: Experimental method: Evaluation of the efficacy of the sample was performed using a colorectal cancer model in which HER2 was not expressed. The cell line at logarithmic growth phase was inoculated subcutaneously into the right side of the immunodeficient mice, and the cell inoculation amount was 5×10^6 cells/mouse. After the transplanted tumor was formed, allow it grow in the mice for 2 passage before use. The tumor tissue with strong growth period was cut into tumor pieces with a diameter of about 2 mm, and inoculated subcutaneously into the right torso of nude mice under sterile conditions. The formed tumor tissue is measured by a vernier caliper, and the long and short diameters are represented by a and b, respectively, and the tumor volume (TV) is calculated as: TV=½×a×b^2. Animals were randomized after tumor growth to 100-150 mm^3. Both models were divided into vehicle group, control group (recombinant anti-HER2 humanized monoclonal antibody Ab, 30 mg/kg) and test group I (administered with APEGA-8, 9, 10, respectively (prepared in Example 6-8), the dose was 30 mg/kg in terms of Ab, and the test group II (PEG-Irinotecan (prepared in Example 5), the dose was 30 mg/kg). Both the test article and the control drug were administered once a week vial the tail vein for a total of three administrations. The diameter of the transplanted tumor was measured twice a week during the entire experiment, and the body weight of the mice was weighed. After the end of the administration, continue to observe the animals for a week, and then they were sacrificed.

## CCc1c2c(nc3ccc(OC(=O)N4CCC(N5CCCCC5)CC4)cc13)-c1cc3c(c(=O)n1C2)COC(=O)[C@]3(C)CC [APEGA-8]
[1]
  DAR (average drug antibody coupling ratio): 22.2
[2]
  elimination rate in rat plasma (total antibody): increased to a certain extent compared with the control Ab, but the decline trend was not significant
[3]; 30 mg/kg in terms of Ab, QW×3
  antitumor activities in relation to drug loading: increased with the drug loading
[3]; irinotecan dose 2.6, 4.2, 11.2 mg/kg respectively
  efficacy compared with group II (PEG-Irinotecan 30 mg/kg): still better than group II
[3]; third week of administration, 30 mg/kg QW×3 via tail vein
  Tumor inhibition rate (%): 40.1%
